Data: patent US20240382435A1, “NON-CERULOPLASMIN BOUND COPPER LEVEL MONITORING” (ORPHALAN S.A., priority 2021, published 2024)

Experiments:
[1] = tested on: patients with Wilson's Disease; assay: Serum NCC by copper speciation assay, randomized open-label clinical study (Example 3); format: in vivo, human
Method: 1.95 mL of rhodium internal standard solution containing 1% TMAH/1% EDTA was combined with 50 μL of human serum in a 15 mL polypropylene tube, capped and rotary mixed for at least 30 minutes. The processed sample was then analysed by ICP-MS on an Agilent 7900x inductively coupled plasma mass spectrometer.
The samples were defrosted and equilibrated to room temperature prior to use, and vortex mixed for approximately 5 seconds. 80 μL of 50 mM Tris-HCl (pH 7.4) buffer solution was combined with 20 μL of the clinical sample, blank or reference standard in a 0.5 mL Eppendorf tube (protein low bind). The diluted sample (100 μL) was transferred to a 0.3 mL polypropylene LC vial and sealed with a screw cap. An aliquot (50 μL) of each processed sample was then analysed by LC-ICP-MS on an Agilent 8900x inductively coupled plasma mass spectrometer.
Speciation analysis of Cu-containing species in the serum samples was performed by an anion exchange high performance liquid chromatography (AE HPLC) column (GE Healthcare MonoQ 5/50 GL, stationary phase (10 μm; 5×50 mm)) with an ammonium acetate gradient (0-250 mM) for 20 min. A flow rate of 1.0 mL/min was used. The chromatographic separation was performed at 25° C. Detection of the eluting Cu species was achieved using a collision/reaction cell Agilent Technologies 8900x ICP-MS spectrometer. The isotopes 63Cu and 65Cu were monitored in time resolved mode analysis using an integration time of 0.3 sec. 63Cu is the most abundant isotope and therefore this isotope was used to quantify copper by LC-ICP-MS.
Efficacy was assessed and treatments were monitored primarily using total copper analysis and a copper speciation assay as outlined in Examples 1 and 2 to determine serum NCC levels.
Eligible patients were clinically stable with their standard of-care D penicillamine chelation therapy for at least 1 year. These patients entered a 12-Week Penicillamine Baseline Period (from study visits on Day 1 to Week 12). During this time, all patients continued their current D penicillamine regimen under study conditions. At the end of the Penicillamine Baseline Period, patients who fulfilled the protocol definition of being adequately controlled and tolerating D penicillamine were randomized in a 1:1 ratio to receive either TETA 4HCl or to continue to receive D penicillamine during a 24-Week Post-Randomization Period (from study visits Week 12 to Week 36).
The primary efficacy endpoint was the serum NCC concentration (in μg/L) at Week 36. Serum NCC concentrations were determined using a copper speciation serum NCC assay using the methodology outlined in Examples 1 and 2. The primary efficacy analysis utilized the serum NCC values from all study visits that were analyzed using a restricted maximum likelihood based general linear model for correlated data. The correlation due to repeated measures was modelled by specifying the variance covariance matrix.

[2] = tested on: patients with Wilson's Disease; assay: 24-hour urinary copper excretion (UCE), clinical study of Example 3; format: in vivo, human; conditions: for 24-hour UCE value, mean / 24-hour UCE value, median / 24-hour UCE change from baseline, mean / 24-hour UCE change from baseline, median: ITT
Method: The number and the proportion of patients with a serum NCC value that matched the threshold (eg, serum NCC≤50 μg/L) were presented along with the 95% confidence interval of the proportion by visit and treatment arm. The proportions in the 2 arms were compared using Fisher's exact test. The same approach was applied on 24-hour UCE.

[3] = tested on: patients with Wilson's Disease; assay: Clinical Global Impression of Change (CGIC) rating scale, clinical study of Example 3; format: in vivo, human; parameters: key: 7-point ordinal CGIC scale, 4 = no change; conditions: 7-point scale, ITT
From the text: The CGIC rating scale, a 7-point ordinal score, was summarized by visit and treatment arm, and compared between arms using a stratified Cochran-Mantel-Haenszel test. The UWDRS, a continuous measure, was summarized by visit and treatment arm with descriptive statistics for absolute values and the changes from baseline.

[4] = tested on: patients with Wilson's Disease; assay: Baseline ALT, clinical study of Example 3; conditions: human, in vivo
From the text: For change from baseline in laboratory measurements, “baseline” was defined as the last non-missing value during the Penicillamine Baseline Period, including unscheduled values.

[5] = Day 1, 12-Week Penicillamine Baseline Period (all patients on D-penicillamine), ITT population, by arm
[6] = Week 4, Penicillamine Baseline Period (all patients on D-penicillamine), ITT
[7] = Week 8, Penicillamine Baseline Period (all patients on D-penicillamine), ITT
[8] = Week 12 (randomization), end of Penicillamine Baseline Period, ITT
[9] = Week 16, Post-Randomization Period, ITT
[10] = Week 20, Post-Randomization Period, ITT
[11] = Week 24, Post-Randomization Period, ITT
[12] = Week 28, Post-Randomization Period, ITT
[13] = Week 32, Post-Randomization Period, ITT
[14] = Week 36, Post-Randomization Period, ITT
[15] = Day 1, 12-Week Penicillamine Baseline Period (all patients on D-penicillamine), by arm
[16] = Week 4, Penicillamine Baseline Period (all patients on D-penicillamine)
[17] = Week 12 (randomization), end of Penicillamine Baseline Period
[18] = Week 16, 24-Week Post-Baseline Period
[19] = Week 24, 24-Week Post-Baseline Period
[20] = Week 36, 24-Week Post-Baseline Period
[21] = Week 12, Penicillamine Baseline Period
[22] = Week 16, Post-Randomization Period
[23] = Week 24, Post-Randomization Period
[24] = Week 36, Post-Randomization Period

CC(C)(S)[C@@H](N)C(=O)O [D-Penicillamine, D-penicillamine]
serum NCC value, mean [1, 5]: 63.9 µg/L | serum NCC value, median [1, 5]: 61.0 µg/L | serum NCC value, mean [1, 6]: 59.4 µg/L | serum NCC value, median [1, 6]: 58.4 µg/L | serum NCC value, mean [1, 7]: 71.9 µg/L | serum NCC value, median [1, 7]: 69.0 µg/L | serum NCC value, mean [1, 8]: 84.4 µg/L | serum NCC value, median [1, 8]: 83.0 µg/L | serum NCC value, mean ([1]; Week 16, 24-Week Post-Randomization Period, ITT): 82.8 µg/L | serum NCC change from baseline, mean [1, 9]: -2.1 µg/L | serum NCC change from baseline, median [1, 9]: 0.0 µg/L | serum NCC value, median [1, 9]: 77.5 µg/L | serum NCC change from baseline, mean [1, 10]: -12.3 µg/L | serum NCC change from baseline, median [1, 10]: -11.6 µg/L | serum NCC value, mean [1, 10]: 73.3 µg/L | serum NCC value, median [1, 10]: 75.5 µg/L | serum NCC change from baseline, mean [1, 11]: -16.9 µg/L | serum NCC change from baseline, median [1, 11]: -20.0 µg/L | serum NCC value, mean [1, 11]: 66.3 µg/L | serum NCC value, median [1, 11]: 64.0 µg/L | serum NCC change from baseline, mean [1, 12]: -10.6 µg/L | serum NCC change from baseline, median [1, 12]: -17.5 µg/L | serum NCC value, mean [1, 12]: 73.1 µg/L | serum NCC value, median [1, 12]: 65.1 µg/L | serum NCC change from baseline, mean [1, 13]: -19.1 µg/L | serum NCC change from baseline, median [1, 13]: -21.7 µg/L | serum NCC value, mean [1, 13]: 64.6 µg/L | serum NCC value, median [1, 13]: 62.0 µg/L | serum NCC value, mean ([1]; Week 36 (primary efficacy endpoint), Post-Randomization Period, ITT): 53.4 µg/L | serum NCC change from baseline, mean [1, 14]: -29.7 µg/L | serum NCC change from baseline, median [1, 14]: -34.0 µg/L | serum NCC value, median [1, 14]: 51.0 µg/L | serum NCC levels, comparison between arms ([1]; copper speciation assay, Table 4): very similar | 24-hour UCE value, mean [2, 15]: 568.3 μg/24 hours | 24-hour UCE value, median [2, 15]: 478.8 μg/24 hours | 24-hour UCE value, mean [2, 16]: 551.5 μg/24 hours | 24-hour UCE value, median [2, 16]: 594.6 μg/24 hours | 24-hour UCE value, mean [2, 17]: 539.1 μg/24 hours | 24-hour UCE value, median [2, 17]: 496.0 μg/24 hours | 24-hour UCE change from baseline, mean [2, 18]: −26.8 μg/24 hours | 24-hour UCE change from baseline, median [2, 18]: −60.3 μg/24 hours | 24-hour UCE value, mean [2, 18]: 512.1 μg/24 hours | 24-hour UCE value, median [2, 18]: 501.4 μg/24 hours | 24-hour UCE change from baseline, mean [2, 19]: 37.9 μg/24 hours | 24-hour UCE change from baseline, median [2, 19]: 23.4 μg/24 hours | 24-hour UCE value, mean [2, 19]: 546.8 μg/24 hours | 24-hour UCE value, median [2, 19]: 495.3 μg/24 hours | 24-hour UCE change from baseline, mean [2, 20]: 4.9 μg/24 hours | 24-hour UCE change from baseline, median [2, 20]: −4.7 μg/24 hours | 24-hour UCE value, mean [2, 20]: 519.7 μg/24 hours | 24-hour UCE value, median [2, 20]: 536.9 μg/24 hours | 24-hour UCE, comparison between treatment arms ([2]; all time points analyzed after randomization, statistically significant differences): higher levels of copper excretion | Clinical Global Impression of Change Scale, mean ([3]; Week 4, Penicillamine Baseline Period (all patients on D-penicillamine), 4 = no change): 4.1 | Clinical Global Impression of Change Scale, median [3, 16]: 4.0 | Clinical Global Impression of Change Scale, mean [3, 21]: 3.9 | Clinical Global Impression of Change Scale, median [3, 21]: 4.0 | Clinical Global Impression of Change Scale, mean [3, 22]: 4.1 | Clinical Global Impression of Change Scale, median [3, 22]: 4.0 | Clinical Global Impression of Change Scale, mean [3, 23]: 4.0 | Clinical Global Impression of Change Scale, median [3, 23]: 4.0 | Clinical Global Impression of Change Scale, mean [3, 24]: 4.0 | Clinical Global Impression of Change Scale, median [3, 24]: 4.0 | ALT, mean baseline [4]: 35.6 U/L
